Drug excretion data for two molecules are collected here from ChEMBL document CHEMBL3044555, “Metabolism of thymol and trans-anethole in larvae of Spodoptera litura and Trichoplusia ni (Lepidoptera: Noctuidae)” (J Agric Food Chem, 2004).

Data set [1] is described as follows: Drug excretion in 80 last instar Spodoptera litura larvae feces assessed as side chain methyl group hydroxylated compound on at 0.1 % fwt, po by TLC analysis. The data set is classed as ADME, organism-based. Conditions: in vivo; call rule not given here.
The nature of data set [2]: Drug excretion in 80 last instar Trichoplusia ni (cabbage looper) larvae feces assessed as side chain methyl group hydroxylated compound on at 0.1 % fwt, po by TLC analysis. The data set is classed as ADME, organism-based. The note with it: in vivo.
Data set [3] is described as follows: Drug excretion in 80 last instar Trichoplusia ni (cabbage looper) larvae feces assessed as side chain methyl group hydroxylated compound on at 0.1 % fwt, po by 1H/13C NMR analysis. The data set is classed as ADME, organism-based. Conditions: in vivo.
A short description of data set [4]: Drug excretion in 80 last instar Trichoplusia ni (cabbage looper) larvae feces assessed as unchanged parent compound at 0.1 % fwt, po measured after 3 days by 1H/13C NMR analysis. It is filed as ADME, organism-based. The note with it: in vivo, 72 h.
Data set [5] in a line: Drug excretion in 80 last instar Trichoplusia ni (cabbage looper) larvae feces assessed as thymol 3-O-beta-glucoside at 0.1 % fwt, po measured after 3 days by TLC analysis. The data set is classed as ADME, organism-based. Conditions: in vivo, 72 h.
Data set [6] in a line: Drug excretion in 80 last instar Spodoptera litura larvae feces assessed as thymol 3-O-beta-glucoside at 0.1 % fwt, po measured after 3 days by TLC analysis. The data set is classed as ADME, organism-based. The note with it: in vivo, 72 h.
Data set [7] can be described thus: Drug excretion in 80 last instar Trichoplusia ni (cabbage looper) larvae feces assessed as thymol 3-O-beta-glucoside at 0.1 % fwt, po measured after 3 days by 1H/13C NMR analysis. It is filed as ADME, organism-based. Conditions: in vivo, 72 h.
The nature of data set [8]: Drug excretion in 80 last instar Spodoptera litura larvae feces assessed as unchanged parent compound at 0.1 % fwt, po measured after 3 days by 1H/13C analysis. It is filed as ADME, organism-based. The note with it: in vivo, 72 h.
Data set [9] can be described thus: Drug excretion in 80 last instar Spodoptera litura larvae feces assessed as thymol 3-O-beta-glucoside at 0.1 % fwt, po measured after 3 days by 1H/13C NMR analysis. It is filed as ADME, organism-based. The note with it: in vivo, 72 h.
Data set [10] can be described thus: Drug excretion in 30 last instar Trichoplusia ni (cabbage looper) larvae feces assessed as thymol 3-O-beta-glucoside at 100 ug administered topically on abdominal terga by TLC analysis. The data set is classed as ADME. Conditions: in vivo, topical_or_ocular.

In the case of `C/C=C/c1ccc(OC)cc1` [ANETHOLE], the Drug excretion in data set [1] was 5.8 mg; in [2], 5.8 mg; in data set [3], “Active”; in [4] it was “Not Active”.

`Cc1ccc(C(C)C)c(O)c1` [THYMOL]: the Drug excretion is 3.2 mg in data set [5]; 3.2 mg in data set [6]; “Active” in [4]; “Active” in data set [7]; “Active” in [8]; “Active” in [9]. The Drug excretion result in data set [10] was “Active”.
